The text below walks through data of patent US8399024B2, “Water-insoluble medicine” (Ebara Corporation, priority 2006, dated 2013).

Where a name gives a salt, the structure may show the parent alone. Read-outs that look alike come from different tables or passages of the source.

Data set [1] deals with human gastric cancer H-23 (moderately differentiated-type adenocarcinoma). Nature of the data set: Anti-tumor effect using nude mice-transplanted human tumor (Example 2). It counts as in vivo, BALB/cAJcl-nu nude mouse. Conditions: 60 mg/kg i.v. q4d×4, final day d35.
The nature of data set [2]: Influence of the drug on the host: change in weight and symptoms (Example 3). To be noted: 60 mg/kg i.v. d7, d11, d14. The format is in vivo, BALB/cAJcl-nu nude mouse. Here is the method: The experiment was ended after 4 weeks from the starting day of administration. The tumor cell diameter was measured twice a week, and the weight was measured at the time of administration, so as to monitor the state of tumor cell proliferation and effect of drug administration, as well as any other physical changes. The mice were kept in a small vinyl isolator throughout the experiment, except for when they were moved to a clean bench through a sleeve to perform tumor cell transplantation, administration or weight measurement.
The influence of the drug on the host was evaluated by considering the change in weight and the expression of symptoms.

In data set [3] the test system is human gastric cancer H-23 (moderately differentiated-type adenocarcinoma). Nature of the data set: Anti-tumor effect using nude mice-transplanted human tumor (Example 3). Conditions: 60 mg/kg i.v. d7, d11, d14.
For the next data set, the system named is MCF-7 tumor cells. Description: Cytotoxicity test, viable cell count with Cell Counting Kit-8 (WST-8). The format is cell-based. Conditions: read-out: 50% inhibiting activity. Here is the method:
Ellipticine which had been size-reduced by laser beam irradiation (concentration: 2 μg/ml) was diluted with the below-mentioned culturing solution, and test samples having concentrations of 1 μg/ml, 0.5 μg/ml, 0.25 μg/ml and 0.125 μg/ml were prepared. MCF-7 (MEM-culture medium) and L-1210 (RPMI-1640 culture medium) tumor cells were used as target cells. The cytotoxicity was evaluated by counting the number of viable cells following 24 hours of culturing, using Cell Counting Kit-8. More specifically, WST-8 (U.S. Pat. No. 2,757,348) as an indicate for dehydrogenase activities was used, and the color at 450 nm was evaluated. Viability(%)=(Asamples−Ablank)/(Ano-samples−Ablank) 100%
The cytotoxicity of the SN-38 nano particles was evaluated by counting the number of viable cells following 24 hours of culturing in the same manner as in the cytotoxicity test of ellipticine as described in item (3-4) of Example 1. The 50% inhibiting activity for MCF-7 cells was 100 nM.
The cytotoxicity of the 10-hydroxy-camptothecin nano particles was evaluated by counting the number of viable cells following 72 hours of culturing in the same manner as in the cytotoxicity test of ellipticine as described in item (3-4) of Example 1. The 50% inhibiting activity for MCF-7 cells was 100 nM.

With `CCc1c2c(nc3ccc(OC(=O)N4CCC(N5CCCCC5)CC4)cc13)-c1cc3c(c(=O)n1C2)COC(=O)[C@]3(O)CC` [CPT-11, irinotecan hydrochloride], the drug effect evaluation result in data set [1] is listed as “non-effective (IR of below 58%)”. For the same compound, in data set [2], the body state entry was “not good” and the “maximum weight loss (max. wt. loss)” value stood at 0.4%. Besides, in data set [3] (d18), the “evaluation of max. IR” value is “effective (IR≧58%)” and the “max. IR” value worked out at 69.0%. Besides, the drug effect evaluation result in data set [3] (d21) was “non-effective (IR of below 58%)”. The drug effect evaluation entry in data set [3] (final day d35) is “non-effective (IR of below 58%)”.
In the case of `CCc1c2c(nc3ccc(O)cc13)-c1cc3c(c(=O)n1C2)COC(=O)[C@]3(O)CC` [DMSO solution of SN-38, 7-ethyl-10-hydroxycamptothecin], in the data set on MCF-7 tumor cells (MCF-7, 24 hours of culturing), the IC50 amounted to 500 nM.
In the case of `CC[C@@]1(O)C(=O)OCc2c1cc1n(c2=O)Cc2cc3cc(O)ccc3nc2-1` [DMSO solution of 10-hydroxy-camptothecin, 10-hydroxy-camptothecin], in the data set with MCF-7 tumor cells (MCF-7, 72 hours of culturing), the IC50 is 100 nM.
